Assays:
Caco-2 = experiment: Intrinsic permeability in Caco-2 cells; conditions: human
[1] = biological target: T1, Vascular endothelial growth factor receptor 2 (Homo sapiens, UniProt P35968)
Description: Inhibition of VEGFR2 phosphorylation in presence of 2 uM ATP by HTRF assay

[2] = biological target: T1, Vascular endothelial growth factor receptor 2; experiment: Inhibition of VEGFR2 phosphorylation in HEK293 cells by cell-based ELISA
[3] = biological target: Vascular endothelial growth factor receptor 1 (Homo sapiens, UniProt P17948)
Description: Inhibition of VEGFR1 phosphorylation in presence of 2 uM ATP by HTRF assay

[4] = biological target: T1, Vascular endothelial growth factor receptor 2; experiment: Binding affinity to VEGFR2 at 0.043 uM
[5] = biological target: T1, Vascular endothelial growth factor receptor 2; experiment: Binding affinity to VEGFR2 at 0.031 uM
[6] = biological target: T1, Vascular endothelial growth factor receptor 2; experiment: Binding affinity to VEGFR2 at 0.058 uM

Sequence of Vascular endothelial growth factor receptor 1 (P17948 whole entry): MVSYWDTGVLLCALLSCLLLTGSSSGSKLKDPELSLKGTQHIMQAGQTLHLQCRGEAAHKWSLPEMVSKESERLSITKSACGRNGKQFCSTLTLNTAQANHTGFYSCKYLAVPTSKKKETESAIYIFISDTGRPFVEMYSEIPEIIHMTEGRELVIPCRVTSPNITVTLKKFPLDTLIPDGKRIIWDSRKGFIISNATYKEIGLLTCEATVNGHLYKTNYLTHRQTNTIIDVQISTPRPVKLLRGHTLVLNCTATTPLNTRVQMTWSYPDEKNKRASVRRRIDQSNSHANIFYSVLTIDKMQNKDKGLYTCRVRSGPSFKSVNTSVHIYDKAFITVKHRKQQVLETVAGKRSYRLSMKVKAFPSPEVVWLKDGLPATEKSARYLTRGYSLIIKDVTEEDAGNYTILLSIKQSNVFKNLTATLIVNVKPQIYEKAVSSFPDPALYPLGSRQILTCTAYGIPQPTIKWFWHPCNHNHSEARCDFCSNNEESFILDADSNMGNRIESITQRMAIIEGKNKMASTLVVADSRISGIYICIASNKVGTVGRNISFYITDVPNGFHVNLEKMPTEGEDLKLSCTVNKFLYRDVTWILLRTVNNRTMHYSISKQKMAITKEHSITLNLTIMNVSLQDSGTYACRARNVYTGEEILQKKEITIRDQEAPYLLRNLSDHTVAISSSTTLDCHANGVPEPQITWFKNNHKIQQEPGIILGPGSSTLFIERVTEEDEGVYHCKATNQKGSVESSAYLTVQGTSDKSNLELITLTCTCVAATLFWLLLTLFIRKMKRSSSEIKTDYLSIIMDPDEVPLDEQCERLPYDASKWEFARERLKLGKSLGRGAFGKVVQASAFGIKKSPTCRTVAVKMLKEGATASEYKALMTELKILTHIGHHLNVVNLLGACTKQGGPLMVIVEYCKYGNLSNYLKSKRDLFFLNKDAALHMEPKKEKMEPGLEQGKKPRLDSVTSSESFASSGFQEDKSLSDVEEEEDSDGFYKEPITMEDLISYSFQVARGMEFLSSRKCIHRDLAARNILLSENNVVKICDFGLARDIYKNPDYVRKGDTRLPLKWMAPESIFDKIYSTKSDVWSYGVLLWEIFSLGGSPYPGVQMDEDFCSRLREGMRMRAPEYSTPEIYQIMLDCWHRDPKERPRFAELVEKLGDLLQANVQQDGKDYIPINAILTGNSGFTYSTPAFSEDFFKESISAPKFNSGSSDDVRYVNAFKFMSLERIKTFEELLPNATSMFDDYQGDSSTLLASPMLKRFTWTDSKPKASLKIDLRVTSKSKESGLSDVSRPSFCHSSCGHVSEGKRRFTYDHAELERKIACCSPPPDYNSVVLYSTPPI
T1 sequence (P35968 whole entry): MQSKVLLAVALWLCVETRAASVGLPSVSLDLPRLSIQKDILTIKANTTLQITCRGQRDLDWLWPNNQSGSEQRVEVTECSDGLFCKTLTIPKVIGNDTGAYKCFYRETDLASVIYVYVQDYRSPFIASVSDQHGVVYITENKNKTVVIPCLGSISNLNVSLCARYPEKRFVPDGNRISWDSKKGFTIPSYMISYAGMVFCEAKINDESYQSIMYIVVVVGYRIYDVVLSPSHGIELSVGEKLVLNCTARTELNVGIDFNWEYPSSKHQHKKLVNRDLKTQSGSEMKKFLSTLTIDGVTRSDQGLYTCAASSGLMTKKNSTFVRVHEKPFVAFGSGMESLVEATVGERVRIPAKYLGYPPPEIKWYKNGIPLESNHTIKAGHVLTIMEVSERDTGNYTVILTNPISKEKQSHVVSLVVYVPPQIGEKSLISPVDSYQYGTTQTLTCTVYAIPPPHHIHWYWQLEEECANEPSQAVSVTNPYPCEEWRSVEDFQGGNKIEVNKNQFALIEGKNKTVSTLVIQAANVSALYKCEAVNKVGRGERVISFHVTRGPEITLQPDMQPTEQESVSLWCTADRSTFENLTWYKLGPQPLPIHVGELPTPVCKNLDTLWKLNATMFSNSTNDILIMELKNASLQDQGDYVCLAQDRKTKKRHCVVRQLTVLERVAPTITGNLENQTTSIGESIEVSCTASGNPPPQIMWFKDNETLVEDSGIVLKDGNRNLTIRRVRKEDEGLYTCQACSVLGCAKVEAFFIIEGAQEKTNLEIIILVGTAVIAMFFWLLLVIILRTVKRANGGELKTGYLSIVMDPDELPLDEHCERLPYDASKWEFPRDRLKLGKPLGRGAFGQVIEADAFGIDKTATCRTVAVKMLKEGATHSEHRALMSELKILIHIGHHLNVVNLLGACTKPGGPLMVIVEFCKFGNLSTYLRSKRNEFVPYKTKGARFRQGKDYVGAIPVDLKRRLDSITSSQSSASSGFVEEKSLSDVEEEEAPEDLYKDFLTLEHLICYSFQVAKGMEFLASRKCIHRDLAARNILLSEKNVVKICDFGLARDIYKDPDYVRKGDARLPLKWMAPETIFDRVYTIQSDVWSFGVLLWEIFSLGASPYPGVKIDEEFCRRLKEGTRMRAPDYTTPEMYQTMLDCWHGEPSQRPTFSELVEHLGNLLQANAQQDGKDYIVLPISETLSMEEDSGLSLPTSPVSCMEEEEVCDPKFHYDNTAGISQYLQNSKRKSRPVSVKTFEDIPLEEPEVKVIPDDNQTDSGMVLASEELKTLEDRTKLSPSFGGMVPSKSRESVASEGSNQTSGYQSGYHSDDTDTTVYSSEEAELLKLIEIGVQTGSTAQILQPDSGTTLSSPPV

Row | SMILES | Pm (Caco-2) | IC50 [1] | IC50 ([2]; read-out: IC50) | IC50 [3] | Ki [4] | Ki [5] | IC50 ([2]; hek293) | Ki [6]
1 | O=C(Nc1cnc2ccccc2c1)c1ccccc1NCc1ccncc1 | 17.3 10^-5 cm/min | – | – | – | – | – | – | –
2 | Cc1cccc(Nc2nnc(-c3cccnc3CCc3ccncc3)o2)c1 | – | 770 nM | 2140 nM | 1070 nM | – | – | – | –
3 | Clc1ccc(Nc2nnc(-c3cccnc3CCc3ccncc3)o2)cc1Cl | – | 79 nM | 94 nM | 270 nM | – | – | – | –
4 | CC(C)(C)c1ccc(Nc2nnc(-c3cc4ccccc4nc3CCc3ccncc3)o2)cc1 | – | > 10000 nM | – | > 10000 nM | – | – | – | –
5 | CC(C)(C)c1ccc(Nc2nnc(-c3ccncc3CCc3ccncc3)o2)cc1 | – | 190 nM | 320 nM | 220 nM | – | – | – | –
6 | COc1cccc(Nc2nnc(-c3cccnc3CCc3ccncc3)o2)c1 | – | 170 nM | 290 nM | 500 nM | – | – | – | –
7 | FC(F)(F)c1ccc(Nc2nnc(-c3cnccc3CCc3ccncc3)o2)cc1 | – | 440 nM | 740 nM | 670 nM | – | – | – | –
8 | CC(C)(C)c1ccc(Nc2nnc(-c3cccnc3CCc3ccncc3)o2)cc1 | – | 43 nM | 63 nM | 770 nM | 130 nM | – | – | –
9 | FC(F)(F)c1cccc(Nc2nnc(-c3cnccc3CCc3ccncc3)o2)c1 | – | 720 nM | 2540 nM | 1220 nM | – | – | – | –
10 | FC(F)(Cl)Oc1ccc(Nc2nnc(-c3cccnc3CCc3ccncc3)o2)cc1 | – | 31 nM | 44 nM | 730 nM | – | 100 nM | – | –
11 | FC(F)(Cl)Oc1ccc(Nc2nnc(-c3ccncc3CCc3ccncc3)o2)cc1 | – | 220 nM | 530 nM | 810 nM | – | – | – | –
12 | FC(F)(F)Oc1cccc(Nc2nnc(-c3ccncc3CCc3ccncc3)o2)c1 | – | 470 nM | 860 nM | 710 nM | – | – | – | –
13 | FC(F)(F)c1cccc(Nc2nnc(-c3cccnc3CCc3cccc4ncccc34)o2)c1 | – | 5640 nM | > 10000 nM | > 10000 nM | – | – | – | –
14 | Cc1ccccc1Nc1nnc(-c2cccnc2CCc2ccncc2)o1 | – | > 10000 nM | – | > 10000 nM | – | – | – | –
15 | FC(F)(F)c1cccc(Nc2nnc(-c3cc4ccccc4nc3CCc3ccncc3)o2)c1 | – | > 10000 nM | > 10000 nM | > 10000 nM | – | – | – | –
16 | FC(F)(F)c1cccc(Nc2nnc(-c3cccnc3CCc3ccc4ccccc4n3)o2)c1 | – | > 10000 nM | > 10000 nM | > 10000 nM | – | – | – | –
17 | FC(F)(F)Oc1cccc(Nc2nnc(-c3cccnc3CCc3ccncc3)o2)c1 | 42.6 10^-5 cm/min | 69 nM | 110 nM | 260 nM | – | – | – | –
18 | c1cnc(CCc2ccncc2)c(-c2nnc(Nc3cnc4ccccc4c3)o2)c1 | – | 380 nM | – | 440 nM | – | – | Not Active | –
19 | c1ccc2ncc(Nc3nnc(-c4cc5ccccc5nc4CCc4ccncc4)o3)cc2c1 | – | > 10000 nM | – | > 10000 nM | – | – | – | –
20 | Fc1ccc(CCc2ncccc2-c2nnc(Nc3cccc(C(F)(F)F)c3)o2)cc1F | – | > 10000 nM | > 10000 nM | > 10000 nM | – | – | – | –

Row | SMILES | Pm (Caco-2) | IC50 [1] | IC50 ([2]; read-out: IC50) | IC50 [3] | Ki [4] | Ki [5] | IC50 ([2]; hek293) | Ki [6]
21 | FC(F)(F)Oc1ccc(Nc2nnc(-c3cnccc3CCc3ccncc3)o2)cc1 | – | 360 nM | 510 nM | 470 nM | – | – | – | –
22 | FC(F)(F)c1cccc(Nc2nnc(-c3cccnc3CCc3ccccn3)o2)c1 | – | > 10000 nM | > 10000 nM | > 10000 nM | – | – | – | –
23 | CC(C)c1ccc(Nc2nnc(-c3ccncc3CCc3ccncc3)o2)cc1 | – | 250 nM | 390 nM | 270 nM | – | – | – | –
24 | c1ccc(-c2ccc(Nc3nnc(-c4cccnc4CCc4ccncc4)o3)cc2)cc1 | – | 2630 nM | – | > 10000 nM | – | – | – | –
25 | FC(F)(F)c1ccc(Nc2nnc(-c3ccncc3CCc3ccncc3)o2)cc1 | – | 290 nM | 720 nM | 840 nM | – | – | – | –
26 | CC(C)c1ccc(Nc2nnc(-c3cccnc3CCc3ccncc3)o2)cc1 | – | 51 nM | 75 nM | 620 nM | – | – | – | –
27 | FC(F)(F)c1cccc(Nc2nnc(-c3cccnc3CCc3cccnc3)o2)c1 | – | > 10000 nM | > 10000 nM | > 10000 nM | – | – | – | –
28 | FC(F)(F)Oc1ccc(Nc2nnc(-c3cccnc3CCc3ccncc3)o2)cc1 | – | 44 nM | 51 nM | 560 nM | – | – | – | –
29 | FC(F)(F)c1ccc(Nc2nnc(-c3cccnc3CCc3ccncc3)o2)cc1 | – | 58 nM | 76 nM | 320 nM | – | – | – | 120 nM
30 | FC(F)(F)Oc1cccc(Nc2nnc(-c3cnccc3CCc3ccncc3)o2)c1 | – | 550 nM | 760 nM | 740 nM | – | – | – | –
31 | FC(F)(F)c1cccc(Nc2nnc(-c3ccncc3CCc3ccncc3)o2)c1 | – | 560 nM | 1110 nM | 760 nM | – | – | – | –
32 | FC(F)(Cl)Oc1ccc(Nc2nnc(-c3cnccc3CCc3ccncc3)o2)cc1 | – | 440 nM | 590 nM | 530 nM | – | – | – | –
33 | Cc1ccc(Nc2nnc(-c3cccnc3CCc3ccncc3)o2)cc1C(F)(F)F | – | 87 nM | 92 nM | 120 nM | – | – | – | –
34 | COc1ccc(Nc2nnc(-c3cccnc3CCc3ccncc3)o2)cc1OC | – | 67 nM | 110 nM | 180 nM | – | – | – | –
35 | FC(F)(F)c1cccc(Nc2nnc(-c3cccnc3CCc3ccc4[nH]ncc4c3)o2)c1 | – | 3870 nM | > 10000 nM | > 10000 nM | – | – | – | –
36 | c1cnc(CCc2ccncc2)c(-c2nnc(NCc3ccc4c(c3)OCO4)o2)c1 | 23.6 10^-5 cm/min | 85 nM | 290 nM | 140 nM | – | – | – | –
37 | CC(C)(C)c1ccc(Nc2nnc(-c3cnccc3CCc3ccncc3)o2)cc1 | – | 310 nM | 520 nM | 480 nM | – | – | – | –
38 | FC(F)(F)c1cccc(Nc2nnc(-c3cccnc3CCc3ccncc3)o2)c1 | – | 64 nM | 110 nM | 220 nM | – | – | – | –
39 | FC(F)(F)Oc1ccc(Nc2nnc(-c3ccncc3CCc3ccncc3)o2)cc1 | – | 350 nM | 660 nM | 930 nM | – | – | – | –
